In patent US5246957A, “N-imidazolyl derivatives of substituted indole” (Farmitalia Carlo Erba S.r.l., priority 1991, dated 1993):
Like-named read-outs stand apart in the source and are kept apart here.

What was measured:
TxB2 synthesis = test: TxB2 Synthesis Inhibition in vitro, in whole blood of normal rats; format: cell-based, Sprague Dawley rats; details: Rattus norvegicus, read-out: In vitro effect on TxB2 synthesis in normal rats, IC50 (whole blood)
Protocol: (§1) The effects of a representative group of compounds of the invention were evaluated, in comparison with known compounds, on TxB2 synthesis inhibition in vitro, in whole blood of normal rats, and on TxA2 antagonism in a binding assay in washed human platelets.
TxB2 Synthesis Inhibition
Blood was withdrawn from the abdominal aorta of normal Sprague Dawley rats (Charles River Italy) under light ether anaestesia. The blood was immediately divided in portions of 0.5 ml and distributed in glass tubes each containing a concentration of the test compound, or of the reference compounds.
Samples were then allowed to clot for 1 hour at 37° C., centrifuged at 3000 rpm for 10 min, and serum collected and stored at -20° C. until assayed.

TxA2 receptor = biological target: T1, TxA2 receptor (Homo sapiens, UniProt P21731); test: Displacement of [^3 H]-SQ 29,548 Binding to Washed Human Platelets; details: for affinity for the receptor compared with reference standards: versus BM 13505 and BM 13177; for IC50: washed human platelets, [^3 H]-SQ 29,548 5 nM, 30 min at 25° C., pH 7.4, n = 3, read-out: ^3 H SQ 29548 binding displacement (washed human platelet) IC50
T1 construct: endogenous in cells; host or cells: washed platelets from blood of healthy human volunteers
T1 sequence (P21731 1-343): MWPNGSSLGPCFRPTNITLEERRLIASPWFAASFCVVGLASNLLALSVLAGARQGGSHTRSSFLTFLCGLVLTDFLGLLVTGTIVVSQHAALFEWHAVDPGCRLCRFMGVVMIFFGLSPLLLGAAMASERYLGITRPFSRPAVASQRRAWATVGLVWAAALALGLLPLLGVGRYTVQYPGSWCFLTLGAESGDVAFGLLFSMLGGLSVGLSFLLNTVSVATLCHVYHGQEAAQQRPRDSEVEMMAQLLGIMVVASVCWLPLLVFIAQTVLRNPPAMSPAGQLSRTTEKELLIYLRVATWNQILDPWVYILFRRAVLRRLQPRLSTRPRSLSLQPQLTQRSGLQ
Protocol: as §1
Displacement of [^3 H]-SQ 29,548 Binding to Washed Human Platelets
Blood from healthy volunteers of both sexes who had not taken any medication for at least 10 days was collected into one-tenth volume of acid citrate dextrose containing indomethacin (28 μM). Platelet rich plasma (PRP), obtained by centrifugation of the blood at 200× g for 20 min, was washed twice (1000× g for 10 min). The platelets were then resuspended in Tyrode-Hepes buffer (pH 7.4) to a final concentration of […] and incubated for 0-60 min at 25° with [^3 H]-SQ 29,548 (5 nM). For displacement experiments various concentrations (10^-9 -10^-4 M) of competing ligands were added and incubated for 30 min at 25° C. […] After the incubation, 4 ml of ice-cold TRIS-HCl buffer ( 10 mM, pH 7.4) was added to each tube and the reaction mixture was immediately filtered by suction through a Whatman GF/C glass filter disc which was washed 2 times with ice-cold TRIS-HCl (4 ml) and counted for radioactivity by a Packard β-counter.
The binding data were analysed by computerized non-linear curve fitting using the Ligand program and expressed as IC50.

[1] = whole blood of normal rats, clotted 1 hour at 37° C., TxB2 by RIA

| IC50 (TxA2 receptor) [nM] | Compound | IC50 (TxB2 synthesis; 1 h) [nM] | IC50 (TxB2 synthesis; [1]) [nM] | affinity for the receptor compared with reference standards (TxA2 receptor) |
| --- | --- | --- | --- | --- |
|  | CC(=O)Oc1ccccc1C(=O)O [ASA, acetylsalicilic acid] | 31000 |  |  |
|  | O=C(O)c1ccc(OCCn2ccnc2)cc1 [Dazoxiben, dazoxiben] |  | 1200 |  |
| 32.9 | Cc1c(CCC(=O)O)n(Cc2ccc(-n3ccnc3)cc2)c2ccc(F)cc12 [FCE 27005, 5-Fluoro-1-[[4-(1H-imidazol-1-yl)phenyl]methyl]-3-methyl-1H-indole-2-propanoic acid] |  |  | affinity for the receptor greater than those of compounds BM 13505 and BM 13177 |
| 11.9 | Cc1c(CCCC(=O)O)n(Cc2ccc(-n3ccnc3)cc2)c2ccc(F)cc12 [FCE 27093, 5-Fluoro-1-[[4-(1H-imidazol-1-yl)phenyl]methyl]-3-methyl-1H-indole-2-butanoic acid] |  | 1190 | affinity for the receptor greater than those of compounds BM 13505 and BM 13177 |
